According to patent US7998965B2, “Glutamate aggrecanase inhibitors” (Wyeth LLC, priority 2005, dated 2011):
pIC50: −log10 of the molar value. Like-named read-outs stand apart in the source and are kept apart here.

What was measured:
[1] = target: T1, purified recombinant human Aggrecanase-1 (rAgg1) (Homo sapiens, UniProt O75173); assay: In vitro fluorescence screen for Aggrecanase-1 inhibitors; format: biochemical; design: Agg1 % at concentration: scale not given here; settings: for Agg1 % at concentration: Table 3; for pIC50: Table 2, read-out: Agg1 IC50
T1 sequence (O75173 213-837): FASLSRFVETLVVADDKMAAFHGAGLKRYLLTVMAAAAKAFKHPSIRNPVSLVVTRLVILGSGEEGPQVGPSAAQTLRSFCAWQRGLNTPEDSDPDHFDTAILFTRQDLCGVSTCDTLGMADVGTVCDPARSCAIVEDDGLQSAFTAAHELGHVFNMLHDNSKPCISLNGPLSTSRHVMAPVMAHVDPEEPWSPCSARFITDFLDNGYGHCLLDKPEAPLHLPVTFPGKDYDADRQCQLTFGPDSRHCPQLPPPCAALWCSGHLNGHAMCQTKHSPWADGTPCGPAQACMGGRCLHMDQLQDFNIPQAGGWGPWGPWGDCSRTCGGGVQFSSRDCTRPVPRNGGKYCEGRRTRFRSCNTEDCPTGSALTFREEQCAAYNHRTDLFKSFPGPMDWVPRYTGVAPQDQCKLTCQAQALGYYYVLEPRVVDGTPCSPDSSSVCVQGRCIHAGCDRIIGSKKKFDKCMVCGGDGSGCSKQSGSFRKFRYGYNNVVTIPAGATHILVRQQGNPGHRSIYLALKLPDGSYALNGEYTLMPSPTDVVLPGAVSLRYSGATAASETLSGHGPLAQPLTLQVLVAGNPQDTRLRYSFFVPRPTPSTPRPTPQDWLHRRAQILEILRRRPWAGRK

[2] = target: T2, purified recombinant human Aggrecanase-2 (Ag2t-Phe628-Strep) (Homo sapiens, UniProt Q9UNA0); assay: In vitro fluorescence screen for Aggrecanase-2 inhibitors; format: biochemical; settings: for pIC50: read-out: Agg 2 IC50; for Agg 2 % at concentration: at 11000 (nM)
T2 construct: the form used is denoted as Ag2t-Phe628-Strep (MW=41,737)
T2 sequence (Q9UNA0 262-628): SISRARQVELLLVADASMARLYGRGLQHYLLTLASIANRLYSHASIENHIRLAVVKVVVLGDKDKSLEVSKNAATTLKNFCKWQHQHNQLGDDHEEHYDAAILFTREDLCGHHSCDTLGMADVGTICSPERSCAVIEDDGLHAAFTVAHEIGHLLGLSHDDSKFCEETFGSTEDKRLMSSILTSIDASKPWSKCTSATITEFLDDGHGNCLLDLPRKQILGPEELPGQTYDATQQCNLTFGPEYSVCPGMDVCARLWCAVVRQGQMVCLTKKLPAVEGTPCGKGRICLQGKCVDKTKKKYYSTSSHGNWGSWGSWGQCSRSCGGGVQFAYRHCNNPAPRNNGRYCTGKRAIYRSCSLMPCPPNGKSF

| pIC50 [1] | pIC50 ([2]; Table 2) | SMILES | also measured |
| --- | --- | --- | --- |
|  |  | COc1cccc(-c2cccc(COc3ccc(-c4ccc(C(=O)N[C@@H](CCC(=O)O)C(=O)NCc5ccccc5)cc4)cc3)c2)c1 [Example 15V, N-benzyl-N^2-({4′-[(3′-methoxybiphenyl-3-yl)methoxy]biphenyl-4-yl}carbonyl)-L-α-glutamine] | Agg1 % at concentration ([1]; at 40 (nM)): 47% 40; pIC50 ([2]; Table 3): 6.15 |
|  |  | O=C(O)CC[C@H](NC(=O)c1ccc(-c2ccc(OCc3ccccc3-c3ccccc3)cc2)cc1)C(=O)NCc1ccccc1 [Example 15W, N-benzyl-N^2-{[4′-(biphenyl-2-ylmethoxy)biphenyl-4-yl]carbonyl}-L-α-glutamine] | Agg1 % at concentration ([1]; at 1900 (nM)): 56%; Agg 2 % at concentration ([2]; Table 3): 59% |
|  |  | COc1cccc(-c2ccccc2COc2ccc(-c3ccc(C(=O)N[C@@H](CCC(=O)O)C(=O)NCc4ccccc4)cc3)cc2)c1 [Example 15X, N-benzyl-N^2-({4′-[(3′-methoxybiphenyl-2-yl)methoxy]biphenyl-4-yl}carbonyl)-L-α-glutamine] | Agg1 % at concentration ([1]; at 1900 (nM)): 46%; Agg 2 % at concentration ([2]; Table 3): 52% |
| 6.66 | 6.08 | CC(C)(Cc1ccccc1)NC(=O)[C@H](CCC(=O)O)NC(=O)c1ccc(-c2ccc(COc3cccc(C(C)(C)C)c3)cc2)cc1 [Example 15Y, N^2-({4′-[(3-tert-butylphenoxy)methyl]biphenyl-4-yl}carbonyl)-N-(1,1-dimethyl-2-phenylethyl)-L-α-glutamine] |  |
| 5.85 | 5.22 | CC(C)(Cc1ccccc1)NC(=O)[C@H](CCC(=O)O)NC(=O)c1ccc(-c2ccc(COc3cc(C(C)(C)C)cc(C(C)(C)C)c3)cc2)cc1 [Example 15Z, N^2-({4′-[(3,5-di-tert-butylphenoxy)methyl]biphenyl-4-yl}carbonyl)-N-(1,1-dimethyl-2-phenylethyl)-L-α-glutamine] |  |
| > 7.52 | 6.33 | CCOc1cccc(-c2ccc(C(=O)N[C@@H](CCC(=O)O)C(=O)NCc3cc(OC)c(OC)c(OC)c3)cc2)c1 [Example 16, N^2-[(3′-ethoxybiphenyl-4-yl)carbonyl]-N-(3,4,5-trimethoxybenzyl)-L-α-glutamine] |  |
| 6.94 | 5.95 | CCOc1ccccc1-c1ccc(C(=O)N[C@@H](CCC(=O)O)C(=O)NCc2cc(OC)c(OC)c(OC)c2)cc1 [Example 17A, N^2-[(2′-ethoxybiphenyl-4-yl)carbonyl]-N-(3,4,5-trimethoxybenzyl)-L-α-glutamine] |  |
| 5.46 | 5.24 | COc1cc(CNC(=O)[C@H](CCC(=O)O)NC(=O)c2ccc(-c3ccc(C(C)C)cc3)cc2)cc(OC)c1OC [Example 17AA, N^2-[(4′-isopropylbiphenyl-4-yl)carbonyl]-N-(3,4,5-trimethoxybenzyl)-L-α-glutamine] |  |
| 6.69 | 5.99 | COc1ccc(-c2ccc(C(=O)N[C@@H](CCC(=O)O)C(=O)NCc3cc(OC)c(OC)c(OC)c3)cc2)cc1 [Example 17B, N^2-[(4′-methoxybiphenyl-4-yl)carbonyl]-N-(3,4,5-trimethoxybenzyl)-L-α-glutamine] |  |
| 5.44 | 5.54 | O=C(O)CC[C@H](NC(=O)c1ccc(-c2ccc3occc3c2)cc1)C(=O)NCC12CC3CC(CC(C3)C1)C2 [Example 17BB, N-(1-adamantylmethyl)-N^2-[4-(1-benzofuran-5-yl)benzoyl]-L-α-glutamine] |  |
| > 7.52 | 7.10 | COc1cccc(-c2ccc(C(=O)N[C@@H](CCC(=O)O)C(=O)NCc3cc(OC)c(OC)c(OC)c3)cc2)c1 [Example 17C, N^2-[(3′-methoxybiphenyl-4-yl)carbonyl]-N-(3,4,5-trimethoxybenzyl)-L-α-glutamine] |  |
| 5.54 | 5.53 | O=C(O)CC[C@H](NC(=O)c1ccc(-c2ccc3[nH]ccc3c2)cc1)C(=O)NCC12CC3CC(CC(C3)C1)C2 [Example 17CC, N-(1-adamantylmethyl)-N^2-[4-(1H-indol-5-yl)benzoyl]-L-α-glutamine] |  |
